Data published in article PMC5760531, “Action Potential Recording and Pro-arrhythmia Risk Analysis in Human Ventricular Trabeculae” (Frontiers in Physiology, 2018).

Test system: human ventricular trabeculae
Test: Action potential recording and pro-arrhythmic score analysis in human ventricular trabeculae (hVT);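 note: sharp microelectrode action potential recordings at 37°C in Tyrode-perfused trabeculae, 4 cumulative concentrations each applied 31 min, values averaged over last 30 APs, vehicle 0.1% DMSO as control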
[1] = 1Hz, 1111-FOLD free ETPC (0.009µM)
[2] = 2Hz, 1-FOLD free ETPC (0.009µM)
[3] = 2Hz, 11-FOLD free ETPC (0.009µM)
[4] = 2Hz, 111-FOLD free ETPC (0.009µM)
[5] = 2Hz, 1111-FOLD free ETPC (0.009µM)

Description: Briefly, the human heart was transferred into a dissection vessel containing a cold (4°C), fresh proprietary dissection solution. The heart was maintained completely submerged in dissection solution. Ventricular trabeculae were dissected and transferred to the recording chamber.
Briefly, a single tissue was mounted into the experimental chamber filled with oxygenated Tyrode's external solution. The temperature of the solution was maintained at 37°C with flow rate at 5 mL per minute. The tissue was allowed to equilibrate for 30–60 min with stimulation (3 V, 3 ms) at a frequency of 1.0 Hz. High impedance borosilicate microelectrodes were prepared with a tip resistance of 10–20 MΩ once filled with 3 M KCl. Upon tissue impalement, the membrane potential was allowed to stabilize (typically, around −85 mV). Tissues with resting membrane potentials more positive than −75 mV were rejected. Bipolar stimulation at 1.5x threshold was applied and recordings were performed in continuous mode with sampling at 20 kHz using ADInstruments and LabChart Software.
Interruption of perfusion/oxygenation; (2). Absence of Aps following stimulation at baseline; (3). Time frame of drug exposure not respected; (4). Unstable response to stimulation at baseline; (5). Resting membrane potential (RMP) > −75 mV; 7). Maximal amplitude of AP (AMAX) <70 mV; 8). AP duration at 90% repolarization (APD90) <200 ms or >450 ms.
Experimental Procedure: Each test article was evaluated at 4 concentrations in 4 ventricular trabeculae derived from a minimum of 2 donor hearts. Testing concentrations were chosen based upon human free ETPC, aiming to cover 1–100-fold of human free ETPC. […] Briefly, following stabilization of each tissue, APs were collected and assessed for 31 min in vehicle control solution (Tyrode with 0.1% DMSO) at stimulation frequencies of 1 Hz for 25 min, 2 Hz for 3 min and then 1 Hz for 3 min. Following this vehicle control period, 4 concentrations of a test compound were applied sequentially and cumulatively. Each concentration was applied for 31 min with the same stimulation sequence as in vehicle controls.
For each frequency tested, the last 30 APs acquired at the end of the period were averaged for vehicle controls and for each test article concentration. Analysis at 1 Hz included only the last 30 APs of the initial 25-min incubation period. The following AP parameters and pro-arrhythmia variables were analyzed offline upon the completion of recordings:
• RMP (mV) • AMAX (mV) • AP duration at percent repolarization (APD20, APD30, APD50, APD60, APD90) (ms) • Short term variability analysis of AP duration (STV): Beat-to-beat variability of repolarization was quantified as STV from APD90 Poincare plots over a period of 30 sec.
Compound effects were quantified relative to the data collected during the vehicle control period (see Figure 1). […] Additionally, based on AnaBios historical data, threshold values for changes over baseline control for AP instability, APD alternans, Maximum APD dispersion and ERP (APD) were based upon an effect level of 10%. When applicable, differences were tested for statistical significance using the unpaired Student's t-test. A value of P < 0.05 was considered significant.
AP parameters and pro-arrhythmia variables were combined into a meaningful, single score to assess the pro-arrhythmic risk of a compound at each concentration tested. The pro-arrhythmic potential of compounds at 1 or 2 Hz was determined by assigning a weighted scale to each variable (Table 1).

CC(C)(C)c1ccc(C(O)CCCN2CCC(C(O)(c3ccccc3)c3ccccc3)CC2)cc1 (stereo not drawn) [TERFENADINE, Terfenadine]
Triangulation [1]: 137
Triangulation percentage change compared to vehicle control [1]: 2%
AMAX [2]: 109
AMAX percentage change compared to vehicle control [2]: 2%
APD30 [2]: 107
APD30 percentage change compared to vehicle control [2]: 8%
APD50 [2]: 151
APD50 percentage change compared to vehicle control [2]: 6%
APD90 [2]: 228
APD90 percentage change compared to vehicle control [2]: 2%
Alternans [2]: 1.31
Alternans percentage change compared to vehicle control [2]: 24%
Beat Escape [2]: 0
Beat Escape percentage change compared to vehicle control [2]: 0%
EADs [2]: 0
EADs percentage change compared to vehicle control [2]: 0%
ERP [2]: 0.48
ERP percentage change compared to vehicle control [2]: -3%
Max Dispersion [2]: 5.60
Max Dispersion percentage change compared to vehicle control [2]: 14%
RMP [2]: -87
RMP percentage change compared to vehicle control [2]: 1%
Refractoriness Escape [2]: 0
Refractoriness Escape percentage change compared to vehicle control [2]: 0%
STV [2]: 0.91
Triangulation [2]: 120
Triangulation percentage change compared to vehicle control [2]: -2%
AMAX [3]: 108
AMAX percentage change compared to vehicle control [3]: 2%
APD30 [3]: 110
APD30 percentage change compared to vehicle control [3]: 11%
APD50 [3]: 153
APD50 percentage change compared to vehicle control [3]: 7%
APD90 [3]: 231
APD90 percentage change compared to vehicle control [3]: 4%
Alternans [3]: 0.97
Alternans percentage change compared to vehicle control [3]: -8%
Beat Escape [3]: 0
Beat Escape percentage change compared to vehicle control [3]: 0%
EADs [3]: 0
EADs percentage change compared to vehicle control [3]: 0%
ERP [3]: 0.47
ERP percentage change compared to vehicle control [3]: -6%
Max Dispersion [3]: 4.40
Max Dispersion percentage change compared to vehicle control [3]: -11%
RMP [3]: -86
RMP percentage change compared to vehicle control [3]: -1%
Refractoriness Escape [3]: 0
Refractoriness Escape percentage change compared to vehicle control [3]: 0%
STV [3]: 0.66
Triangulation [3]: 121
Triangulation percentage change compared to vehicle control [3]: -2%
AMAX [4]: 109
AMAX percentage change compared to vehicle control [4]: 2%
APD30 [4]: 108
APD30 percentage change compared to vehicle control [4]: 10%
APD50 [4]: 154
APD50 percentage change compared to vehicle control [4]: 7%
APD90 [4]: 234
APD90 percentage change compared to vehicle control [4]: 4%
Alternans [4]: 1.28
Alternans percentage change compared to vehicle control [4]: 21%
Beat Escape [4]: 0
Beat Escape percentage change compared to vehicle control [4]: 0%
EADs [4]: 0
EADs percentage change compared to vehicle control [4]: 0%
ERP [4]: 0.48
ERP percentage change compared to vehicle control [4]: -2%
Max Dispersion [4]: 5.53
Max Dispersion percentage change compared to vehicle control [4]: 12%
RMP [4]: -85
RMP percentage change compared to vehicle control [4]: -2%
Refractoriness Escape [4]: 0
Refractoriness Escape percentage change compared to vehicle control [4]: 0%
STV [4]: 0.89
Triangulation [4]: 126
Triangulation percentage change compared to vehicle control [4]: 0%
AMAX [5]: 108
AMAX percentage change compared to vehicle control [5]: 2%
APD30 [5]: 105
APD30 percentage change compared to vehicle control [5]: 5%
APD50 [5]: 150
APD50 percentage change compared to vehicle control [5]: 4%
APD90 [5]: 233
APD90 percentage change compared to vehicle control [5]: 3%
Alternans [5]: 0.96
Alternans percentage change compared to vehicle control [5]: -10%
Beat Escape [5]: 0
Beat Escape percentage change compared to vehicle control [5]: 0%
EADs [5]: 0
EADs percentage change compared to vehicle control [5]: 0%
ERP [5]: 0.48
ERP percentage change compared to vehicle control [5]: -3%
Max Dispersion [5]: 3.10
Max Dispersion percentage change compared to vehicle control [5]: -37%
RMP [5]: -85
RMP percentage change compared to vehicle control [5]: -2%
Refractoriness Escape [5]: 0
Refractoriness Escape percentage change compared to vehicle control [5]: 0%
STV [5]: 0.71
Triangulation [5]: 128
Triangulation percentage change compared to vehicle control [5]: 3%
